Measurements as given in patent US10478421B1, “Sortilin binding compounds, formulations, and uses thereof” (University of Florida, priority 2016, dated 2019).

Assays:
[1] = test system: PCSK9; experiment: Cellular PCSK9 by immunoblot in McA cells; assay type: cell-based, rat; conditions: 10 μM, 18 h, 1% BSA/DMEM
Description: McA cells were incubated in 1% BSA/DMEM with DMSO, 541 (10 μM) or 984 (10 μM) for 18 h. Cellular proteins were extracted and analyzed by IB for LDLR (LS-C146979, 1:2000) (FIG. 5A) or PCSK9 (Ab125251, 1:2000) (FIG. 5B) using HRP-linked secondary antibody and ECL detection. Loading controls included β-ACTIN (Rockland ph600-401-886) and GAPDH (cb1001mAb (6C5). Band intensities were measured using ChemiDocXRS+ system and evaluated using ImageLab 5.1 software (BioRad). Results are average of triplicates ±S.D. PCSK9 is a known ligand for sortilin where sortilin acts as a chaperone for PCSK9 secretion.

[2] = target: T1, hsortilin (Homo sapiens, UniProt Q99523); experiment: Surface plasmon resonance on hsortilin immobilized on CM7 chips (Example 2); assay type: binding
T1 construct: Human sortilin (hsortilin) (Ser78-Asn755) with C-terminal 6-His tag; purchased R&D Systems, Inc. (Minneapolis, Minn.)
T1 sequence (Q99523 78-755): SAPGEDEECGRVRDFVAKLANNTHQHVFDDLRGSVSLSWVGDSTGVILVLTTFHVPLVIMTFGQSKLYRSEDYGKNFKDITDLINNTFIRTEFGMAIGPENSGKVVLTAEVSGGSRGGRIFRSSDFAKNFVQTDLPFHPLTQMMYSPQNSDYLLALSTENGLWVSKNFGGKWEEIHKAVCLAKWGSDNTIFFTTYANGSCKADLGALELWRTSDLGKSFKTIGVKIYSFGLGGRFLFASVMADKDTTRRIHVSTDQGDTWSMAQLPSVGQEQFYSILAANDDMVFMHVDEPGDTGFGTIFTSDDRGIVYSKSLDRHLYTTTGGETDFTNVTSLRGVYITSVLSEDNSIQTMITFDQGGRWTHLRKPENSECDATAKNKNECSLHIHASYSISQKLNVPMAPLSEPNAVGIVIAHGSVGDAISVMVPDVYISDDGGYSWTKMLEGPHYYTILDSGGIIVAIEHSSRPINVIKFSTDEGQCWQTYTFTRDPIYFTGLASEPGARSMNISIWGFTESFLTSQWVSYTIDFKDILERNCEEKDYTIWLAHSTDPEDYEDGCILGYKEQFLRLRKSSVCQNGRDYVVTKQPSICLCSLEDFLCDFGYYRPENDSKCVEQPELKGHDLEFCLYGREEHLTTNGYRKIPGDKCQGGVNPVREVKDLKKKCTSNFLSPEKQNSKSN
Description: Surface plasmon resonance (SPR) measurements were performed on a Biacore T200 instrument equipped with two separate CM7 sensor chips, one with about 20,000 response units (RU) and another with about 27,000 RU of hsortilin covalently immobilized. […] For all other SPR injections, regeneration consisted of injections of running buffer alone. GE BIAcore T200 evaluation software version 3.0 (BIAevaluate) was used to analyze and export results. […] PIP3 containing nanodiscs were flowed at 2:1 dilutions to obtain kinetic data fitted using about 27,000 RU CM7 surface. Kinetic fit generated with BIAevaluate and local Rmax using Langmuir 1:1 binding model exported from BIAevaluate to Microsoft Excel 2016 with fit indicated by the black line.

[3] = test system: McArdle rat hepatocytes; experiment: VLDL-apo E secretion by McArdle rat hepatocytes (slot blotting); assay type: cell-based; conditions: 0.1-25 μM, 14-18 h
Description: McArdle rat hepatocytes were incubated with five media concentrations 0 (no cpd), 1 (0.1 μM), 2 (1 μM), 3 (10 μM) and 4 (25 μM) of cpd984 (FIG. 7A), cpd541 (FIG. 7B), or with a combination of both compounds (FIG. 7C) at indicated concentrations. Hepatocytes were incubated overnight (14-18 h) and media were collected and VLDL-B100 and VLDL-apo E were detected by slot blotting as described above. An anti-rat apoE antibody was used for measurement of VLDL-apo E secretion. Results are the average of triplicate analysis in one study.

[4] = target: T2, hsortilin (Homo sapiens, UniProt Q99523); experiment: SPR binding of 541 and 984 to hsortilin (Example 4)
T2 sequence (Q99523 78-831): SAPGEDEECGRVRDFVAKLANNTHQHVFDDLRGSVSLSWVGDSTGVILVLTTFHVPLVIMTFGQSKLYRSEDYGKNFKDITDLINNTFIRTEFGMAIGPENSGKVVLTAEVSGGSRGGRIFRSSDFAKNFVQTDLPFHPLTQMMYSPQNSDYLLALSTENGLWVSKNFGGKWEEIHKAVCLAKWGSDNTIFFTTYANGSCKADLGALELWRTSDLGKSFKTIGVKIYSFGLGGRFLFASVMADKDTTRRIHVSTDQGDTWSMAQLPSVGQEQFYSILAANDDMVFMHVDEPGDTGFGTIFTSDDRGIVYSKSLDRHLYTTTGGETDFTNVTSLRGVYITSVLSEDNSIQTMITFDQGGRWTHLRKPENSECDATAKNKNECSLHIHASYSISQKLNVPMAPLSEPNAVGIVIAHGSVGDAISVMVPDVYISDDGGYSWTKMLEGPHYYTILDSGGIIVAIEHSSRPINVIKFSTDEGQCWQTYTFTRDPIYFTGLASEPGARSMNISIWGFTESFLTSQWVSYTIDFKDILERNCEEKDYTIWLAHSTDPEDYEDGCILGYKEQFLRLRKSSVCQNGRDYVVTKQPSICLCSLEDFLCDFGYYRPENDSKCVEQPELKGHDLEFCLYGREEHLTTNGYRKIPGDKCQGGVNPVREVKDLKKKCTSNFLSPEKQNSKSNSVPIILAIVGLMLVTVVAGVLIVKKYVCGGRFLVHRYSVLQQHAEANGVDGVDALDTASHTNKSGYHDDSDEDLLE
Description: Due to inherent fluorescence of 541 small molecule, thermophoresis was performed in two different buffer conditions (PBS n=3 and MST n=2) and at two sets of concentration ranges. […] SPR indicates a high and low affinity binding site of cpd984 to human sortilin of hsortilin with Kd of about 200 μM and about 20 nM.

Compound	effect on cellular PCSK9 [1]	effect on NT binding to hsortilin by SPR [2]	increase of binding of C-term NT (SITE 1) to hsortilin when incubated with 984 [2] [fold]	effect on VLDL-apoE secretion [3]	Kd ([4]; high affinity binding site) [µM]	Kd ([4]; low affinity binding site) [µM]	Kd ([4]; two trials) [µM]
CN1CCC[C@H]1C(=O)Nc1cccc(NC(=O)CCc2ccccc2)c1 [cpd984, (2S)-1-methyl-N-{3-[(3-phenylpropanoyl)-amino]phenyl} pyrrolidine-2-carboxamide]	accumulation of cellular PCSK9	enhances NT binding	100	increases	~0.02	~200	
CC(NC(=O)c1ccccc1NCC(=O)O)c1ccccc1 (stereo not shown) [cpd541]	no biological difference	competes for NT binding		decreases			7.5
